In PMC5111108, “An insecticide resistance-breaking mosquitocide targeting inward rectifier potassium channels in vectors of Zika virus and malaria” (Scientific Reports, 2016):
Like-named read-outs stand apart in the source and are kept apart here.

Columns and labels:
AnKir1 = target: T1, AnKir1 (Anopheles gambiae, UniProt A0A075M2J8); assay: Whole-cell patch clamp of AnKir1 in HEK-293T cells; type: cell-based; details: for IC50: currents at -120 mV
T1 sequence (A0A075M2J8 1-555): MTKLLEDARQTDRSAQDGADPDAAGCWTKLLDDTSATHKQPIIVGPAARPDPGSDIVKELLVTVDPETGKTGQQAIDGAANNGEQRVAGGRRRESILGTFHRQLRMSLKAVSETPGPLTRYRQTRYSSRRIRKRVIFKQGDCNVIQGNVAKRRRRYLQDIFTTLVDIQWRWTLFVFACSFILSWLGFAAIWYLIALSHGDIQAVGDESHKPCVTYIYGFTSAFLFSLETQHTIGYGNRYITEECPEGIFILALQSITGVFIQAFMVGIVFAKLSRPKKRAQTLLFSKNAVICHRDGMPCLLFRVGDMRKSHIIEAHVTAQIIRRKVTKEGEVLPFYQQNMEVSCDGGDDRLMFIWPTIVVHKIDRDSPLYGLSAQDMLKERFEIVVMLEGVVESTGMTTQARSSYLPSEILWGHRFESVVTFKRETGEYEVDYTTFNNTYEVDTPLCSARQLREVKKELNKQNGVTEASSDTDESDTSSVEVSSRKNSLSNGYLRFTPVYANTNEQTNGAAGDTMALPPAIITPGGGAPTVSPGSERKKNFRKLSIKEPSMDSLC
From the text: Transiently transfected HEK-293T cells expressing AnKir1 cells were voltage clamped in the whole-cell configuration of the patch clamp technique, as described previously. The extracellular bath solution contained (in mM): 135 NaCl, 5 KCl, 2 CaCl2, 1 MgCl2, 5 glucose, 10 HEPES free acid, pH 7.4, 290 mOsm/kg H2O. The pipette solution contained (in mM): 135 KCl, 2 MgCl2, 1 EGTA, 10 HEPES free acid, 2 Na2ATP (Roche, Indianapolis, IN), pH 7.3, 275 mOsm. Cells were voltage clamped at −75 mV, stepped to −120 mV for 200 msec, and then ramped to 120 mV at a rate of 2.4 mV/msec. Concentration-response curves (CRCs) were constructed by measuring the effects of increasing doses of inhibitors on AnKir1 currents at −120 mV. All recordings were made at room temperature (20–23 °C).
Patch clamp electrophysiology
Patch electrodes were pulled from silanized 1.5 mm outer diameter borosilicate microhematocrit tubes using a P-1000 Flaming/Brown micropipette puller (Sutter Instrument, Novato CA, USA). Electrode resistance ranged from 2 -4 MΩ. Whole-cell currents were recorded under voltage-clamp conditions using an Axopatch 200B amplifier (Molecular D evices, Sunn yvale, CA). Electri cal conn ections to the amplifier were made using Ag/AgCl wires and 3 M KCl/agar bridges. El ectroph ysiologi cal data were collected at 5 kHz and filtered at 1 kHz.
Data acquisition and anal ys is were performed using pClamp 9.2 software (Axon Instruments). […]

hKir2.1 = target: T2, hKir2.1 (Homo sapiens, UniProt P63252); assay: Tl+ flux assay, mammalian Kir2.1; type: cell-based
T2 construct: expressed in transfected cells
T2 sequence (P63252 1-427): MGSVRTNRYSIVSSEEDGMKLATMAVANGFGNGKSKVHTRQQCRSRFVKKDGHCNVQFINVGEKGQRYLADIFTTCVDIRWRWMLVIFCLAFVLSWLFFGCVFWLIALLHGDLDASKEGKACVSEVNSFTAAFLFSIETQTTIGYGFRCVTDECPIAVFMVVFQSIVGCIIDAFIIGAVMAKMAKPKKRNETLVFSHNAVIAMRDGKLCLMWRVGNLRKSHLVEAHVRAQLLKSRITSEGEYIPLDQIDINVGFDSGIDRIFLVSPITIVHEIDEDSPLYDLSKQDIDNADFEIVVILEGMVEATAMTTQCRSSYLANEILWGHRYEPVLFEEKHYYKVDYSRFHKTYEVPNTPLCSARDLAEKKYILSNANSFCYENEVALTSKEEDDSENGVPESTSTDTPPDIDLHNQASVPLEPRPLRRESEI
Description: The open-reading frame of a full-length cDNA encoding AnKir1 cloned from An. gambiae Malpighian tubules (Genbank Accession # KJ596497)[17] was sub-cloned into the pcDNA5/TO expression vector (Life Technologies) and used for stable cell line generation, as described previously. Expression constructs for mammalian Kir channels were developed and validated in previous studies by our group.
Tl+ flux assay development
Tl+ flux assays were performed essentiall y as described previousl y (1). Briefl y, stabl y transfect ed T-Rex -HEK- 293- AnKir1 cells were cultured overnight in 384-well plates in media containing DMEM, 10% dial yz ed FBS and 1μg/ m L tetrac ycline to induce channel expression
(Fig. S1A). The next day, the cell culture medium was replaced with a dye-loading solution containing assay buffer (Hanks Balanced Salt Solution with 20 mM HEPES, pH 7.3), 0.01% (w/v) Pluronic F-127 (Li fe Technologies, Carlsbad, CA), and 1.2 μM of the thallium-sensitive dye Thallos-AM (TEFl abs, Austin, TX). Following 1 hr incubation at room temperature, the d ye-loading solution was washed from the plates and replaced with 20 μ L/well of assa y buffer. The plates were transferred t o a Ham amatsu Functional Drug Screening System 6000 (FDSS6000; Hamamatsu, Tokyo, J apan) where 20 μ L/well of test compounds in assay buffer (as prepared below) were added and allowed to incubate with the cells for 20 min. After the incubation period, a baseline recordi ng was collected at 1 Hz for 10 s (excitation 470 ± 20 nm, emission 540 ± 30 nm) followed by a t hallium stimulus buffer addition (10 μL/well) and data collection for an additional 4 min. The Tl + stimulus buffer contains in (mM) 125 NaHCO3, 1.8 CaSO4, 1 MgSO4, 5 glucose, 12 Tl2SO4, 10 HEPES, pH 7.4. For Tl + flux assays on Kir2.x, Kir4.1 and Kir6.2/SUR1 ex pressing cells, the Tl+ stimulus buffer contained 1.8 mM Tl 2SO4. […]
Prism software (GraphPad Software) was used to generate CRC from Tl+ fl ux ..Half-inhibition concentration (IC50) values were calculated from fits using a four parameter logistic equation.
High-throughput screeni ng
The test compounds were transferred to daughter pol yprop ylene 384-well plates (G reiner Bio-One, Monroe, NC) using an Echo555 liquid handler (Labcyte, Sunnyvale, CA), and then diluted into assay buffer to generat e a 2X stock in 0.6% DMSO (0.3% final). […]
Concentration- response curves (CRCs) were gener ated b y screening compounds at 3-fold dilution series (1 nM - 30 μM).
Tl+ flux data were anal yzed as previousl y d escri bed (2, 3) using a combination of Excel (Microsoft Corp, Redmond, WA) with XLfit add-in (IDBS, Guildford, Surre y, UK), Ori ginPro (Ori gin Lab, Northampton, MA), and GraphPad Prism (GraphPad Software, San Diego, CA, USA) software. R aw data were opened in Excel and each data point in a gi ven trace was divided by the first data point from that trace (static ratio) followed by subtraction of data points from control traces gen erated in presence of vehicl e co ntrols. The slope of the fluorescen ce increas e beginning 5 s after Tl+ addition and ending 15 s after Tl + addition was calcu lated.

[1] = Tl+ flux assay, read-out: Kir2.1 IC50 (Tl+ flux)
[2] = Tl+ flux, Tables S2/S3 and supplemental text, read-out: hKir2.1 IC50

Structure (SMILES): O=C(Cn1ncc2c1CCOC2)N1CCCc2ccccc21 [VU730]
- IC50 (AnKir1): 0.717 µM
- IC50 (hKir2.1; [1]): > 30 µM

Structure (SMILES): O=C1CCCc2c1ccn2CC(=O)N1CCCc2ccccc21 [Compound 4]
- IC50 (hKir2.1; [2]): > 30 µM

Structure (SMILES): O=C(Cn1nc(C(F)(F)F)c2c1CCCC2)N1CCCc2ccccc21 [VU041, 1-(3,4-dihydroquinolin-1(2H)-yl)-2-(3-(trifluoromethyl)-4,5,6,7-tetrahydro-1H-indazol-1-yl)ethan-1-one]
- Hill coefficient (patch clamp, AnKir1) (AnKir1): 1.3
- time-course and reversibility of AnKir1 inhibition (AnKir1; 10 μM, wash-out with control saline): rapid and partially reversible
- IC50 (AnKir1): 0.496 µM
- IC50 (hKir2.1; [1]): 12.7 µM
- IC50 (hKir2.1; [2]): 11.3 µM

Structure (SMILES): O=C(Cn1nc(C(F)(F)F)c2c1CCCC2)N1CCCC(c2ccccc2)C1 (stereo not shown) [Compound 12]
- IC50 (hKir2.1; [2]): > 30 µM

Structure (SMILES): CC1CC(C)CN(C(=O)Cn2nc(C(F)(F)F)c3c2CCCC3)C1 (stereo not shown) [Compound 13]
- IC50 (hKir2.1; [2]): > 30 µM

Structure (SMILES): O=C(Cn1nc(C(F)(F)F)c2c1CCCC2)NC1CCC1 [VU937]
- IC50 (AnKir1): 29.7 µM
- AnKir1 inhibition relative to VU041 (fold less) (AnKir1; patch clamp): 60 fold

Structure (SMILES): O=C(Cn1nc(C(F)(F)F)c2c1CCCC2)N1CCCC2CCCCC21 (stereo not shown) [Compound 9]
- IC50 (hKir2.1; [2]): > 30 µM
